Test results from US20170296490A1, “USE OF LIGNIN-DERIVED ALDEHYDES AS ANTIFUNGAL AGENTS” (Wisconsin Alumni Research Foundation, priority 2016, published 2017).

Legend:
Alternaria solani = experiment: Colony growth inhibition of Alternaria solani (FIG. 1); type: cell-based; conditions: for growth of the colony: A. solani, 250, 500 and 1,000 μg/mL vs untreated control (DMSO), dose-dependent; for inhibition of Alternaria solani (summary statement): no concentration stated
Protocol: FIG. 1 is a series of photographs illustrating dose-dependent inhibition of Alternaria solani by sinapaldehyde (top row) and coniferyl aldehyde (bottom row) at concentrations of 250 μg/mL, 500 μg/mL, and 1,000 μg/mL.
Without aggressive early control of the pathogen, early blight causes significant yield reductions.

S. sclerotiorum = experiment: Colony growth inhibition of S. sclerotiorum (FIG. 4); type: cell-based, Sclerotinia sclerotiorum; conditions: for growth of the colony: S. sclerotiorum, 250, 500 and 1,000 μg/mL vs untreated control (DMSO), dose-dependent; for inhibition of Sclerotinia sclerotiorium (summary statement): no concentration stated
Protocol: FIG. 4 is a series of photographs illustrating dose-dependent inhibition of Scelerotinia sclerotiorium by sinapyl aldehyde (top row) and coniferyl aldehyde (bottom row) at concentrations of 250 μg/mL, 500 μg/mL, and 1,000 μg/mL.
FIG. 4 is a series of photographs analogous to FIG. 1, but showing the ability of sinapldehyde and coniferyl aldehyde to attenuate the grown of S. sclerotiorum. […] White mold is particularly significant economically because it affects a wide range of hosts. It is also capable of infecting plants at any stage of growth makes. S. sclerotiorum, can survive on infected tissues, in the soil, and on living plants. It affects young seedlings, mature plants, and fruit in the field or in storage. […] It can also propagate throughout a harvested crop if conditions are not monitored carefully. It infects many extensively planted crops, including soybeans, green beans, sunflowers, canola, and peanuts.

Saccharomyces cerevisiae = experiment: Growth inhibition of the yeast S. cerevisiae (FIG. 5); type: cell-based; conditions: for inhibition of S. cerevisiae: at 500 μg/mL; for inhibition of Saccharomyces cerevisiae (summary statement): no concentration stated
Description: FIG. 5 is a graph depicting dose-dependent inhibition of the yeast S. cerevisiae by sinapyl aldehyde ([…]), coniferyl aldehyde (∘), and p-hydroxycoumaryl aldehyde (▾).
FIG. 5 depicts dose-dependent inhibition of S. cerevisiae by sinapyl aldehyde ([…]), coniferyl aldehyde (∘), and p-hydroxycoumaryl aldehyde (▾).

Alternaria alternata = experiment: Colony growth inhibition of Alternaria alternata (FIGS. 2, 3); type: cell-based; conditions: for inhibition of Alternaria alternata (summary statement): no concentration stated; for colony size: end of six days
Protocol: FIG. 2 is a graph depicting dose-dependent inhibition of Alternaria alternata by sinapyl aldehyde. Control=[…]. 250 μg/mL=∘. 500 μg/mL=▾. 1,000 μg/mL=Δ.
FIG. 3 is a graph depicting dose-dependent inhibition of Alternaria alternata by coniferyl aldehyde. Control=[…]. 250 μg/mL=∘. 500 μg/mL=▾. 1,000 μg/mL=Δ.
Similar to FIG. 1, FIG. 2 is a graph depicting dose-dependent inhibition of Alternaria alternata by sinapyl aldehyde. Time in days is on the X-axis; colony size in cm is on the Y-axis. […] A. alternata has also been implicated as a causative agent of asthma in humans. Salo et al. (October 2006) “Exposure to Alternaria alternata in US homes is associated with asthma symptoms” J Allergy Clin Immunol.; 118(4): 892-898.
(Control=[…]. 250 μg/mL=∘. 500 μg/mL=▾. 1,000 μg/mL=Δ.)

Candida albicans = experiment: Growth inhibition of C. albicans (FIG. 6); type: cell-based; conditions: for inhibitory activity against C. albicans: at a concentration of 1000 μg/mL; for inhibition of Candida albicans (summary statement): no concentration stated
Description: FIG. 6 is a graph depicting dose-dependent inhibition of the yeast C. albicans by sinapyl aldehyde ([…]), coniferyl aldehyde (∘), and p-hydroxycoumaryl aldehyde (▾).
FIG. 6 depicts dose-dependent inhibition of C. albicans by sinapyl aldehyde ([…]), coniferyl aldehyde (∘), and p-hydroxycoumaryl aldehyde (▾). Here, the inhibition was not as pronounced as against S. cerevisiae.

## COc1cc(/C=C/C=O)ccc1O [coniferyl aldehyde]
Alternaria solani
  growth of the colony: very significantly inhibited
  inhibition of Alternaria solani (summary statement): show inhibition
S. sclerotiorum
  growth of the colony: very significantly inhibited
  inhibition of Sclerotinia sclerotiorium (summary statement): show inhibition
Saccharomyces cerevisiae
  inhibition of S. cerevisiae: very significant inhibition
  inhibition of Saccharomyces cerevisiae (summary statement): show inhibition
Alternaria alternata; A. alternata, 250, 500 and 1,000 μg/mL treatment groups, six days
  growth rates and colony size: progressively attenuated growth rates and smaller colony size
Alternaria alternata
  inhibition of Alternaria alternata (summary statement): show inhibition
Candida albicans
  inhibitory activity against C. albicans: very signification inhibitory activity
  inhibition of Candida albicans (summary statement): show inhibition

## O=C/C=C/c1ccc(O)cc1 [p-hydroxycoumaryl aldehyde]
Alternaria solani
  inhibition of Alternaria solani (summary statement): show inhibition
S. sclerotiorum
  inhibition of Sclerotinia sclerotiorium (summary statement): show inhibition
Saccharomyces cerevisiae
  inhibition of S. cerevisiae: very significant inhibition
  inhibition of Saccharomyces cerevisiae (summary statement): show inhibition
Alternaria alternata
  inhibition of Alternaria alternata (summary statement): show inhibition
Candida albicans
  inhibitory activity against C. albicans: very signification inhibitory activity
  inhibition of Candida albicans (summary statement): show inhibition

## COc1cc(/C=C/C=O)cc(OC)c1O [sinapyl aldehyde]
Alternaria solani
  growth of the colony: very significantly inhibited
  inhibition of Alternaria solani (summary statement): show inhibition
S. sclerotiorum
  growth of the colony: very significantly inhibited
  inhibition of Sclerotinia sclerotiorium (summary statement): show inhibition
Saccharomyces cerevisiae
  inhibition of S. cerevisiae: very significant inhibition
  inhibition of Saccharomyces cerevisiae (summary statement): show inhibition
Alternaria alternata; A. alternata, 250 μg/mL
  colony size: smaller than the untreated colony
Alternaria alternata; A. alternata, 500 μg/mL
  colony size: smaller still
Alternaria alternata; A. alternata, 1,000 μg/mL
  colony size: the smallest of those tested
Alternaria alternata
  inhibition of Alternaria alternata (summary statement): show inhibition
Candida albicans
  inhibition of Candida albicans (summary statement): show inhibition
